From publication PMC8025584, “Identification of multipotent drugs for COVID-19 therapeutics with the evaluation of their SARS-CoV2 inhibitory activity” (Computational and Structural Biotechnology Journal, 2021)
Read-outs that look alike come from different tables or passages of the source.

Experiments:
[1] = test system: SARS-CoV2 virus (IND/ILS-01/2020); assay: Drug assay: viral load by real-time RT-PCR in SARS-CoV2 infected Vero E6 cells; format: cell-based; settings: Vero E6, 0.1 MOI, 24 h treatment, cell-associated viral RNA by RT-PCR
[2] = test system: Vero E6 cells; settings: Vero E6, MTT, 0.01-20 µM
[3] = in vitro; settings: monkey
[4] = test system: SARS-CoV2; parameters: method as in PMID 33330842; settings: cited from earlier work
[5] = parameters: method as in PMID 26506265, PMID 24466249, PMID 22454559; settings: cited from earlier work
[6] = test system: differentially expressed human proteins in COVID-19; settings: cited from earlier work
[7] = Severe acute respiratory syndrome coronavirus 2, Vero C1008
[8] = gene TNF, drug-gene interaction listed in DGIdb export, ref DGIdb

## Ivermectin
[1]
  IC50: 5.54 µM
[2]
  CC50: 15 µM

## OC(c1cc(C(F)(F)F)nc2c(C(F)(F)F)cccc12)C1CCCCN1 (stereo not drawn) [Mefloquine]
[1]; [7]
  IC50: 0.37 µM
[3]
  CC50: > 20 µM

## OC(CNCC(O)C1CCc2cc(F)ccc2O1)C1CCc2cc(F)ccc2O1 (stereo not drawn) [Nebivolol]
[1]; [7]
  IC50: 5.21 µM
[4]
  inhibition of SARS-CoV2: submicromolar range
[5]
  can cross blood brain barrier: can cross blood brain barrier
[3]
  CC50: > 20 µM

## CCN(CCO)CCCC(C)Nc1ccnc2cc(Cl)ccc12 (stereo not drawn) [Hydroxychloroquine]
[1]; [7]
  IC50: 5 µM
[3]
  CC50: > 20 µM

## Capreomycin
[1]
  IC50: 1 µM
[2]
  CC50: > 20 µM

## Cc1ccc(-c2cc(C(F)(F)F)nn2-c2ccc(S(N)(=O)=O)cc2)cc1 [Celecoxib]
[1]; [7]
  IC50: 3.25 µM
[5]
  can cross blood brain barrier: can cross blood brain barrier
[3]
  CC50: > 20 µM

## CC(C)(O)c1ccccc1CC[C@@H](SCC1(CC(=O)O)CC1)c1cccc(/C=C/c2ccc3ccc(Cl)cc3n2)c1 [Montelukast]
[5]
  can cross blood brain barrier: can cross blood brain barrier
[3]
  CC50: > 20 µM

## CCN(CC)CCCC(C)Nc1ccnc2cc(Cl)ccc12 (stereo not drawn) [CHLOROQUINE]
[6]; [8]
  interaction_types: inhibitor

## N#Cc1ccc(C(c2ccc(C#N)cc2)n2cncn2)cc1 [LETROZOLE]
[6]; gene CYP19A1, ref DGIdb
  interaction_types: antagonist¦inhibitor

## COc1cc([C@@H]2c3cc4c(cc3[C@H](O)[C@H]3COC(=O)[C@H]23)OCO4)cc(OC)c1OC [PODOFILOX, reference compound]
[6]; gene TUBA4A, ref DGIdb
  interaction_types: inhibitor

## Cc1ccc(-n2nc(C(C)(C)C)cc2NC(=O)NCc2cc(F)ccc2Oc2ccc3c(cnn3CCO)c2)cc1 [PEXMETINIB]
[6]; gene HCK, drug-gene interaction listed in DGIdb export, ref DGIdb
  interaction_types: inhibitor

## INFLIXIMAB
[6]; [8]
  interaction_types: inhibitor

## NCCc1c[nH]cn1 [HISTAMINE]
[6]
  interaction_types: activator

## CN1CCC[C@H]1c1cccnc1 [NICOTINE]
[6]
  interaction_types: inhibitor

## COc1cc(N2CCN(C(=O)Cn3nc(-c4ncc[nH]4)c4cccnc43)CC2)ccc1Cl [CCX354]
[6]; gene CCR1, drug-gene interaction listed in DGIdb export, ref DGIdb
  interaction_types: antagonist

## Nc1cccc2c1C(=O)N(C1CCC(=O)NC1=O)C2=O (stereo not drawn) [POMALIDOMIDE]
[6]; [8]
  interaction_types: inhibitor

## CC/C(=C(\c1ccc(O)cc1)c1ccc(OCCNC)cc1)c1ccccc1 [ENDOXIFEN]
[6]; gene CYP19A1, ref DGIdb
  interaction_types: inhibitor

## COc1cc2c(c(OC)c1OC)-c1ccc(OC)c(=O)cc1[C@@H](NC(C)=O)CC2 [COLCHICINE]
[6]; gene TUBA4A, ref DGIdb
  interaction_types: inhibitor

## CCS(=O)(=O)N1CC(CC#N)(n2cc(-c3ncnc4[nH]ccc34)cn2)C1 [BARICITINIB]
[6]; gene GAK, drug-gene interaction listed in DGIdb export, ref DGIdb
  interaction_types: inhibitor
[6]; gene PTK2B, ref DGIdb
  interaction_types: inhibitor

## CSCC[C@@H]1NC(=O)[C@H](CC(C)C)NC(=O)[C@H](CCCNC(=N)N)NC(=O)[C@H](CO)NC(=O)[C@@H]2CSSC[C@@H]3NC(=O)[C@H](CO)NC(=O)CNC(=O)[C@H]([C@@H](C)O)NC(=O)[C@H](CSSC[C@H](N)C(=O)N[C@@H](CCCCN)C(=O)NCC(=O)N[C@@H](CCCCN)C(=O)NCC(=O)N[C@@H](C)C(=O)N[C@@H](CCCCN)C(=O)N2)NC(=O)[C@H](CSSC[C@@H](C(N)=O)NC(=O)[C@H](CCCCN)NC(=O)CNC(=O)[C@H](CO)NC(=O)[C@H](CCCNC(=N)N)NC3=O)NC(=O)[C@H](CC(=O)O)NC(=O)[C@H](Cc2ccc(O)cc2)NC1=O [ZICONOTIDE]
[6]
  interaction_types: inhibitor

## O=C(Nc1ccncc1)C(=O)c1cn(Cc2ccc(Cl)cc2)c2ccccc12 [INDIBULIN]
[6]; gene TUBA4A, ref DGIdb
  interaction_types: inhibitor

## ADALIMUMAB
[6]; [8]
  interaction_types: antibody¦inhibitor

## BRENTUXIMAB VEDOTIN
[6]; gene TUBA4A, ref DGIdb
  interaction_types: inhibitor

## NS(=O)(=O)c1cc2c(cc1Cl)N=C(CSCc1ccccc1)NS2(=O)=O [BENZTHIAZIDE, reference compound]
[6]; gene CA1, ref DGIdb
  interaction_types: inhibitor

## FILGRASTIM
[6]; gene CSF2RB, ref DGIdb
  interaction_types: agonist
[6]; gene CSF3R, ref DGIdb
  interaction_types: stimulator¦agonist

## NS(=O)(=O)c1ccc(S(=O)(=O)Nc2cccc3c(Cl)c[nH]c23)cc1
[6]; gene CA1, ref DGIdb
  interaction_types: inhibitor

## Nc1ncnc2c1ncn2[C@@H]1O[C@H](CO)[C@@H](O)[C@H]1O [ADENOSINE, reference compound]
[6]; gene PI4K2B, ref DGIdb
  interaction_types: inhibitor

## O=C1Nc2ccccc2/C1=C1/Nc2ccccc2C1=O [INDIRUBIN]
[6]
  interaction_types: substrate

## NCC1(CC(=O)O)CCCCC1 [GABAPENTIN, reference compound]
[6]; gene CACNA1A, drug-gene interaction listed in DGIdb export, ref DGIdb
  interaction_types: modulator

## CSCCNc1nc(SCCC(F)(F)F)nc2c1ncn2[C@@H]1O[C@H](COP(=O)(O)OP(=O)(O)C(Cl)(Cl)P(=O)(O)O)[C@@H](O)[C@H]1O [Cangrelor, reference compound]
[6]; gene P2RY13, ref DGIdb
  interaction_types: antagonist

## Nc1ccncc1 [DALFAMPRIDINE]
[6]; gene KCNH7, ref DGIdb
  interaction_types: blocker

B1: TABALUMAB (antibody, chains of the INN, looked up, V domains shown)
VH: QVQLQQWGAGLLKPSETLSLTCAVYGGSFSGYYWSWIRQPPGKGLEWIGEINHSGSTNYNPSLKSRVTISVDTSKNQFSLKLSSVTAADTAVYYCARGYYDILTGYYYYFDYWGQGTLVTVSS
VL: EIVLTQSPATLSLSPGERATLSCRASQSVSRYLAWYQQKPGQAPRLLIYDASNRATGIPARFSGSGSGTDSTLTISSLEPEDFAVYYCQQRSNWPRTFGQGTKVEIK
[6]; gene TNFSF13B, drug-gene interaction listed in DGIdb export, ref DGIdb
  interaction_types: inhibitor

B2: OTLERTUZUMAB (antibody, chains of the INN, looked up, V domains shown)
VH: EVQLVQSGAEVKKPGESLKISCKGSGYSFTGYNMNWVRQMPGKGLEWMGNIDPYYGGTTYNRKFKGQVTISADKSISTAYLQWSSLKASDTAMYYCARSVGPFDSWGQGTLVTVSS
VL: EIVLTQSPATLSLSPGERATLSCRASENVYSYLAWYQQKPGQAPRLLIYFAKTLAEGIPARFSGSGSGTDFTLTISSLEPEDFAVYYCQHHSDNPWTFGQGTKVEIK
[6]; gene CD37, ref DGIdb
  interaction_types: antibody

B3: LENOGRASTIM (protein, UniProt P09919 31-207, looked up)
Granulocyte …: TPLGPASSLPQSFLLKCLEQVRKIQGDGAALQEKLVSECATYKLCHPEELVLLGHSLGIPWAPLSSCPSQALQLAGCLSQLHSGLFLYQGLLQALEGISPELGPTLDTLQLDVADFATTIWQQMEELGMAPALQPTQGAMPAFASAFQRRAGGVLVASHLQSFLEVSYRVLRHLAQP
modifications: glycosylated
[6]; gene CSF3R, ref DGIdb
  interaction_types: agonist

B4: ASELIZUMAB (antibody, chains of the INN, looked up, V domains shown)
VH: EVQLVESGGGLVQPGGSLRLSCAASGFTFSTYAMSWVRQAPGKGLEWVASISTGGSTYYPDSVKGRFTISRDNAKNTLYLQMNSLRAEDTAVYYCARDYDGYFDYWGQGTLVTVSS
VL: DIQMTQSPSSLSASVGDRVTITCKASQSVDYDGDSYMNWYQQKPGKAPKLLIYAASNLESGIPSRFSGSGSGTDFTLTISSLQPEDFATYYCQQSNEDPWTFGQGTKVEIK
[6]; gene SELL, ref DGIdb
  interaction_types: inhibitor

B5: DACLIZUMAB (antibody, chains of the INN, looked up, V domains shown)
VH: QVQLVQSGAEVKKPGSSVKVSCKASGYTFTSYRMHWVRQAPGQGLEWIGYINPSTGYTEYNQKFKDKATITADESTNTAYMELSSLRSEDTAVYYCARGGGVFDYWGQGTLVTVSS
VL: DIQMTQSPSTLSASVGDRVTITCSASSSISYMHWYQQKPGKAPKLLIYTTSNLASGVPARFSGSGSGTEFTLTISSLQPDDFATYYCHQRSTYPLTFGQGTKVEVK
[6]; gene IL2RG, ref DGIdb
  interaction_types: inhibitor

B6: ONERCEPT (protein, UniProt P19438 30-211, looked up)
extracellular domain: LVPHLGDREKRDSVCPQGKYIHPQNNSICCTKCHKGTYLYNDCPGPGQDTDCRECESGSFTASENHLRHCLSCSKCRKEMGQVEISSCTVDRDTVCGCRKNQYRHYWSENLFQCFNCSLCLNGTVHLSCQEKQNTVCTCHAGFFLRENECVSCSNCKKSLECTKLCLPQIENVKGTEDSGTT
modifications: extracellular domain
[6]; [8]
  interaction_types: inhibitor

B7: PEGSUNERCEPT (protein, UniProt P19438 30-211, looked up)
extracellular domain: B6 extracellular domain
modifications: extracellular domain PEGylated
[6]; [8]
  interaction_types: inhibitor

B8: CERTOLIZUMAB PEGOL (antibody, chains of the INN, looked up, V domains shown)
VH: EVQLVESGGGLVQPGGSLRLSCAASGYVFTDYGMNWVRQAPGKGLEWMGWINTYIGEPIYADSVKGRFTFSLDTSKSTAYLQMNSLRAEDTAVYYCARGYRSYAMDYWGQGTLVTVSS
VL: DIQMTQSPSSLSASVGDRVTITCKASQNVGTNVAWYQQKPGKAPKALIYSASFLYSGVPYRFSGSGSGTDFTLTISSLQPEDFATYYCQQYNIYPLTFGQGTKVEIK
modifications: Fab' PEGylated
[6]; [8]
  interaction_types: inhibitor
